Values quoted from earlier work in patent publication EP4659596A1 (Nicoventures Trading Limited, priority 2024, dated 2025).

Conditions: partition coefficient between octanol and water; organic acids of Table 1

Compound | logP
isopropyl benzoic acid | 3.5
CC(C)[C@@H]1CC[C@@H](C)C[C@H]1OC(=O)CCC(=O)O [monomenthyl succinate] | 3
ethyl benzoic acid | 2.9
